Results: the NIST ThermoML archive (doi:10.1016/j.jct.2018.11.011)
Numbers after ± are expanded uncertainties.

Assay: molar heat capacity at constant pressure
Conditions: 101.33 kPa, Crystal, Small (less than 1 g) adiabatic calorimetry

O=C([O][Sb]([c]1ccccc1)([c]1ccccc1)([c]1ccccc1)[c]1ccccc1)c1ccccc1 [tetraphenylantimony benzoate]
Conditions	molar heat capacity at constant pressure [J/K/mol]
5 K	1.72 ± 0.083
5.54 K	2.34 ± 0.11
5.81 K	2.55 ± 0.12
6.27 K	3.24 ± 0.14
6.56 K	3.56 ± 0.16
6.92 K	4.25 ± 0.18
7.71 K	5.93 ± 0.26
7.98 K	6.39 ± 0.27
8.34 K	7.12 ± 0.31
8.69 K	7.77 ± 0.33
9.05 K	8.56 ± 0.33
9.58 K	9.73 ± 0.42
10 K	10.9 ± 0.5
10.05 K	10.9 ± 0.5
10.43 K	12 ± 0.5
10.82 K	13.1 ± 0.58
11.21 K	14.2 ± 0.58
11.44 K	14.8 ± 0.58
11.66 K	15.5 ± 0.67
12.08 K	16.7 ± 0.67
12.66 K	18.5 ± 0.75
13.36 K	20.5 ± 0.83
14.03 K	22.5 ± 0.91
14.57 K	24.4 ± 1
15 K	25.6 ± 1.1
15.26 K	26.4 ± 0.42
15.94 K	28.6 ± 0.42
16.62 K	30.87 ± 0.44
17.29 K	33.05 ± 0.47
17.96 K	35.26 ± 0.49
18.62 K	37.36 ± 0.52
18.8 K	38.09 ± 0.52
19.31 K	39.63 ± 0.54
19.97 K	41.7 ± 0.56
20 K	41.81 ± 0.57
20.6 K	43.6 ± 0.58
22.51 K	49.65 ± 0.64
25 K	57.77 ± 0.72
25.94 K	60.95 ± 0.75
29.45 K	71.99 ± 0.84
30 K	73.7 ± 0.81
31.45 K	78.36 ± 0.86
33 K	82.85 ± 0.91
33.62 K	84.64 ± 0.91
35 K	88.8 ± 1
35.87 K	91.21 ± 1
36.5 K	93.12 ± 1
40 K	102.8 ± 1.1
40.06 K	103.7 ± 0.58
43 K	111 ± 0.67
45 K	115.8 ± 0.67
46.68 K	120.9 ± 0.67
49.76 K	127.9 ± 0.75
50 K	128 ± 0.75
53.38 K	136.9 ± 0.75
57.02 K	145.6 ± 0.83
60 K	151.4 ± 0.83
60.66 K	154.2 ± 0.91
64.31 K	162 ± 0.91
67.97 K	169.5 ± 0.91
70 K	174.2 ± 1
71.63 K	177 ± 1
75.29 K	185.6 ± 1.1
78 K	192 ± 1.1
80 K	195.9 ± 1.1
82.52 K	200.4 ± 1.1
83.53 K	202.5 ± 1.2
85.67 K	207 ± 1.2
88.37 K	212.3 ± 1.2
90 K	214.8 ± 1.2
90.22 K	215.5 ± 1.2
92.48 K	218.9 ± 1.2
93.76 K	221 ± 1.2
95.63 K	223.7 ± 1.2
99.16 K	228.6 ± 1.2
100 K	229.7 ± 1.2
102.7 K	234 ± 1.2
106.23 K	240 ± 1.2
109.78 K	244.9 ± 1.2
113.32 K	250.2 ± 1.3
116 K	255 ± 1.3
119.8 K	262 ± 1.3
120 K	262 ± 1.3
123.36 K	267.2 ± 1.4
126.75 K	273.3 ± 1.4
128 K	275.2 ± 1.4
132.8 K	282.4 ± 1.5
136 K	287 ± 1.5
139.71 K	293.3 ± 1.5
140 K	293.6 ± 1.5
144.47 K	301.3 ± 1.6
146.16 K	303.1 ± 1.6
151.28 K	310.8 ± 1.6
155 K	315 ± 1.7
158.48 K	321.9 ± 1.7
160 K	324.2 ± 1.7
161 K	326 ± 1.7
164.87 K	332.4 ± 1.7
168.1 K	336.4 ± 1.7
169.28 K	338.2 ± 1.7
172.52 K	344.3 ± 1.7
